For 21 compounds, IC50 results are on record in patent US20150225377A1, “VEGFR3 INHIBITORS” (CANCER THERAPEUTICS CRC PTY LIMITED, priority 2012, published 2015).

Structures are written as SMILES.

For the test, the target named is T1, VEGFR3 cytoplasmic domain (Homo sapiens, UniProt P35916).
T1 construct: VEGFR3 cytoplasmic domain (amino acids 798-1298) was purchased as N-terminal GST-fusion protein; GST (N); purchased
The test can be described thus: VEGFR3 biochemical assay (AlphaScreen). The conditions noted are these: GST-VEGFR3 cytoplasmic domain, 500 μM ATP (modified form: His-fusion, 1 μM ATP). As for the experimental part:
Compounds of the invention may be tested for in vitro activity in the following assay: A biotin labelled peptide is used as substrate (amino acid sequence: Biotin-[…]NH2). VEGFR3 cytoplasmic domain (amino acids 798-1298) was purchased as N-terminal GST-fusion protein (“the enzyme”). The 15 μL assay reactions are run in Greiner brand white 384-well low volume plates. All reactions contained 10 mM HEPES pH 7.4, 10 mM MgCl2, 0.01% (v/v) Tween-20, 50 μM Na3VO4, 0.01% (w/v) albumin from chicken egg white, 1 mM Dithiothreitol, 111 nM peptide substrate, 500 μM ATP, and 3.8 ng/reaction enzyme, with the enzyme being omitted from negative control reactions. Compounds were added in a volume of […] from dilution series prepared in DMSO, positive and negative control reactions receiving the same volume DMSO without compound. The plates were sealed with adhesive seals and incubated for 90 minutes at 30 degree Celsius. The reactions were stopped with the detection reagents added at the same time as follows: Product formation was quantified as amplified luminescence between PerkinElmer AlphaScreen™ beads, using Streptavidin-coated donor and anti-phosphotyrosine (P-Tyr-100) acceptor beads. To each reaction, 5 μL containing 10 mM HEPES pH 7.4, 25 mM NaCl, 100 mM EDTA, 0.01% (v/v) Tween-20, and 6.25 μg/mL of each bead type were added. Plates were incubated for 6 hours before being read on a PerkinElmer EnVision™ plate reader in HTS Alphascreen™ mode. IC50 values were obtained by calculating percent inhibition (% I) for each reaction relative to controls on the same plate (% I=(I-CN)/(CP-CN) where CN/CP are the averages of the negative/positive reactions, respectively), then fitting the % I data vs. compound concentration [I] to % I=(A+((B−A)/(1+((C/[I])̂D)))) where A is the lower asymptote, B is the upper asymptote, C is the IC50 value, and D is the slope factor.
The above assay was also run in a modified form in some cases (indicated below with *). In these cases, VEGFR3 cytoplasmic domain (amino acids 818-1177, lacking 949-1002 of UniProt accession number P35916) was expressed and purified as N-terminal Hexa-His-fusion protein (“the enzyme”), rather than using the N-terminal GST-fusion protein. The assay conditions were the same as above but with 1 μM ATP and 8 ng/reaction of the enzyme.

T1 sequence (P35916 798-1298 isoform P35916-1): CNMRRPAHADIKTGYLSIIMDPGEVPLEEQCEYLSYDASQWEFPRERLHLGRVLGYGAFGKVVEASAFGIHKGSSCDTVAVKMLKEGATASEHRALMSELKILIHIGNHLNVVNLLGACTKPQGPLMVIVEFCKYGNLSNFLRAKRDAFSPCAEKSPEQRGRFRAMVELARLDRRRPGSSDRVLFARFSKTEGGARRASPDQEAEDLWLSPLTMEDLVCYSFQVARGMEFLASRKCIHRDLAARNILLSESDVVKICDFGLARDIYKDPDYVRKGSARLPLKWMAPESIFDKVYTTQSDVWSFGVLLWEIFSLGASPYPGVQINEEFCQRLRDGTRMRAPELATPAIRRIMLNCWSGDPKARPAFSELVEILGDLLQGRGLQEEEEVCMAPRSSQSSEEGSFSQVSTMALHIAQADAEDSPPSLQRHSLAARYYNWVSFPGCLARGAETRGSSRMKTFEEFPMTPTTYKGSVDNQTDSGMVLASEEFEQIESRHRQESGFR

As to `NC(=O)Cc1ccccc1CCc1ccnc(Nc2ccc(N3CCNCC3)cc2)n1` [Compound 1, 2-(2-(2-(2-((4-(piperazin-1-yl)phenyl)amino)pyrimidin-4-yl)ethyl)phenyl)acetamide], the IC50 is 161 nM.

With `NC(=O)Cc1ccccc1CCc1nc(Nc2ccc(C3CCNCC3)c(F)c2)ncc1C(F)(F)F` [Compound 7, 2-(2-(2-(2-((3-Fluoro-4-(piperidin-4-yl)phenyl)amino)-5-(trifluoromethyl)pyrimidin-4-yl)ethyl)phenyl)acetamide], 40 nM corresponded to half-maximal inhibition (IC50).

Compound `CN1CCC(c2ccc(Nc3ncc(C(F)(F)F)c(CCc4ccccc4CC(N)=O)n3)cc2F)CC1` [Compound 8, 2-(2-(2-(2-((3-fluoro-4-(1-methylpiperidin-4-yl)phenyl)amino)-5-(trifluoromethyl)pyrimidin-4-yl)ethyl)phenyl)acetamide] registered an IC50 of 34 nM.

Take `CN1CCC(c2ccc(Nc3ncc(C(F)(F)F)c(CCc4ccc(F)cc4CC(N)=O)n3)cc2)CC1` [Compound 10, 2-(5-fluoro-2-(2-(2-((4-(1-methylpiperidin-4-yl)phenyl)amino)-5-(trifluoromethyl)pyrimidin-4-yl)ethyl)phenyl)acetamide]: inhibition was half-maximal at 76 nM (IC50).

In turn, `CN1CCC(c2ccc(Nc3ncc(C(F)(F)F)c(CCc4ccccc4CC(N)=O)n3)cn2)CC1` [Compound 14, 2-(2-(2-(2-((6-(1-methylpiperidin-4-yl)pyridin-3-yl)amino)-5-(trifluoromethyl)pyrimidin-4-yl)ethyl)phenyl)acetamide] gave a concentration for half-maximal inhibition (IC50) of 81 nM.

`NC(=O)Cc1ccc(F)cc1CCc1nc(Nc2ccc(C3CCNCC3)cc2)ncc1C(F)(F)F` [Compound 15, 2-(4-fluoro-2-(2-(2-((4-(piperidin-4-yl)phenyl)amino)-5-(trifluoromethyl)pyrimidin-4-yl)ethyl)phenyl)acetamide] showed an IC50 of 31 nM.

The compound `CN1CCC(c2ccc(Nc3ncc(C(F)(F)F)c(CCc4cc(C(F)(F)F)ccc4CC(N)=O)n3)cc2)CC1` [Compound 17, 2-(2-(2-(2-((4-(1-methylpiperidin-4-yl)phenyl)amino)-5-(trifluoromethyl)pyrimidin-4-yl)ethyl)-4-(trifluoromethyl)phenyl)acetamide] showed an IC50 of 67 nM.

`NC(=O)Cc1ccccc1CCc1nc(Nc2ccc(C3CNC3)cc2)ncc1C(F)(F)F` [Compound 20, 2-(2-(2-(2-((4-(azetidin-3-yl)phenyl)amino)-5-(trifluoromethyl)pyrimidin-4-yl)ethyl)phenyl)acetamide]: the IC50 was 37 nM.

With `COc1cnc(Nc2ccc(C3CCNCC3)cc2)nc1CCc1ccccc1CC(N)=O` [Compound 23, 2-(2-(2-(5-methoxy-2-((4-(piperidin-4-yl)phenyl)amino)pyrimidin-4-yl)ethyl)phenyl)acetamide], 72 nM corresponded to half-maximal inhibition (IC50).

As for `NC(=O)Cc1cc(C(F)(F)F)ccc1CCc1nc(Nc2ccc(C3CCNCC3)cc2)ncc1C(F)(F)F` [Compound 25, 2-(2-(2-(2-((4-(piperidin-4-yl)phenyl)amino)-5-(trifluoromethyl)pyrimidin-4-yl)ethyl)-5-(trifluoromethyl)phenyl)acetamide], the IC50 is 278 nM.

With `Cc1cnc(Nc2ccc(CN)cc2)nc1CCc1ccccc1CC(N)=O` [Compound 27, 2-(2-(2-(2-((4-(aminomethyl)phenyl)amino)-5-methylpyrimidin-4-yl)ethyl)phenyl)acetamide], the IC50 is 118 nM.

With `COC(=O)NC1(c2ccc(Nc3ncc(C)c(CCc4ccccc4CC(N)=O)n3)cc2)CCC1` [Compound 29, methyl 1-(4-(4-(2-(2-amino-2-oxoethyl)phenethyl)-5-methylpyrimidin-2-ylamino)phenyl)cyclobutylcarbamate], the midpoint of inhibition, the IC50, lay at 17 nM.

As for `Cc1cnc(Nc2cnn(C3CNC3)c2)nc1CCc1ccccc1CC(N)=O` [Compound 30, 2-(2-(2-(2-((1-(azetidin-3-yl)-^1H-pyrazol-4-yl)amino)-5-methylpyrimidin-4-yl)ethyl)phenyl)acetamide], the midpoint of inhibition, the IC50, lay at 9 nM.

`Cc1cnc(Nc2ccc(C3CNC3)cc2)nc1CCc1ccccc1CC(N)=O` [Compound 32, 2-(2-(2-(2-((4-(azetidin-3-yl)phenyl)amino)-5-methylpyrimidin-4-yl)ethyl)phenyl)acetamide]: the IC50 is 52 nM.

As to `Cc1cnc(Nc2ccc(C(C)N)cc2)nc1CCc1ccccc1CC(N)=O` (stereo not drawn) [Compound 34, 2-(2-(2-(2-((4-(1-aminoethyl)phenyl)amino)-5-methylpyrimidin-4-yl)ethyl)phenyl)acetamide], the IC50 was 71 nM.

In the case of `NC(=O)Cc1ccccc1CCc1nc(Nc2cnn(C3CCNCC3)c2)ncc1C(F)(F)F` [Compound 35, 2-(2-(2-(2-((1-(piperidin-4-yl)-^1H-pyrazol-4-yl)amino)-5-(trifluoromethyl)pyrimidin-4-yl)ethyl)phenyl)acetamide], half-maximal inhibition (IC50) required 23 nM.

Turning to `CN1CCC(n2cc(Nc3ncc(C(F)(F)F)c(CCc4ccccc4CC(N)=O)n3)cn2)CC1` [Compound 36, 2-(2-(2-(2-((1-(1-methylpiperidin-4-yl)-^1H-pyrazol-4-yl)amino)-5-(trifluoromethyl)pyrimidin-4-yl)ethyl)phenyl)acetamide], the midpoint of inhibition, the IC50, lay at 50 nM.

In turn, `CC(N)c1cccc(Nc2ncc(Cl)c(CCc3ccccc3CC(N)=O)n2)c1` (stereo not drawn) [Compound 38, 2-(2-(2-(2-((3-(1-aminoethyl)phenyl)amino)-5-chloropyrimidin-4-yl)ethyl)phenyl)acetamide] had an IC50 of 76 nM.

For the compound `CC(=O)NC(C)c1cccc(Nc2ncc(Cl)c(CCc3ccccc3CC(N)=O)n2)c1` (stereo not drawn) [Compound 39, 2-(2-(2-(2-((3-(1-acetamidoethyl)phenyl)amino)-5-chloropyrimidin-4-yl)ethyl)phenyl)acetamide], the IC50 worked out at 10 nM.

`CC(N)c1ccc(Nc2ncc(C(F)(F)F)c(CCc3ccccc3CC(N)=O)n2)cn1` (stereo not drawn) [Compound 40, 2-(2-(2-(2-((6-(1-Aminoethyl)pyridin-3-yl)amino)-5-(trifluoromethyl)pyrimidin-4-yl)ethyl)phenyl)acetamide]: the midpoint of inhibition, the IC50, lay at 187 nM.

`NC(=O)Cc1cccc(F)c1CCc1nc(Nc2ccc(C3CCNCC3)cc2)ncc1C(F)(F)F` [Compound 41] came in with an IC50 of 26 nM.
